Test [1] has as its target T1, Human vitronectin receptor (αvβ3) (Homo sapiens, UniProt P05106+P06756).
T1 construct: Human vitronectin receptor (αvβ3) was purified from human placenta as previously described; from tissue; host or cells: human placenta
Nature of the test: Vitronectin adhesion assay (solid phase receptor assay, competition with biotinylated vitronectin). The class given is binding. The method, then:
Vitronectin Adhesion Assay
Human vitronectin receptor (αvβ3) was purified from human placenta as previously described [Pytela et al., Methods in Enzymology, 144:475-489 (1987)]. Human vitronectin was purified from fresh frozen plasma as previously described [Yatohgo et al., Cell Structure and Function, 13:281-292 (1988)]. Biotinylated human vitronectin was prepared by coupling NHS-biotin from Pierce Chemical Company (Rockford, Ill.) to purified vitronectin as previously described [Charo et al., J. Biol. Chem., 266(3):1415-1421 (1991)]. Assay buffer, OPD substrate tablets, and RIA grade BSA were obtained from Sigma (St. Louis, Mo.). Anti-biotin antibody was obtained from Calbiochem (La Jolla, Calif.). Linbro microtiter plates were obtained from Flow Labs (McLean, Va.). ADP reagent was obtained from Sigma (St. Louis, Mo.).
(§1) Solid Phase Receptor Assays
This assay was essentially the same as previously reported [Niiya et al., Blood, 70:475-483 (1987)]. The purified human vitronectin receptor (αvβ3) was diluted from stock solutions to 1.0 μg/mL in Tris-buffered saline containing 1.0 mM Ca^++, Mg^++, and Mn^++, pH 7.4 (TBS^+++). The diluted receptor was immediately transferred to Linbro microtiter plates at 100 μL/well (100 ng receptor/well). The plates were sealed and incubated overnight at 4° C. to allow the receptor to bind to the wells. All remaining steps were at room temperature. The assay plates were emptied and 200 μL of 1% RIA grade BSA in TBS^+++ (TBS^+++/BSA) were added to block exposed plastic surfaces. Following a 2 hour incubation, the assay plates were washed with TBS^+++ using a 96 well plate washer. Logarithmic serial dilution of the test compound and controls were made starting at a stock concentration of 2 mM and using 2 nM biotinylated vitronectin in TBS^+++/BSA as the diluent. This premixing of labeled ligand with test (or control) ligand, and subsequent transfer of 50 μL aliquots to the assay plate was carried out with a CETUS Propette robot; the final concentration of the labeled ligand was 1 nM and the highest concentration of test compound was 1.0×10^−4 M. The competition occurred for two hours after which all wells were washed with a plate washer as before. Affinity purified horseradish peroxidase labeled goat anti-biotin antibody was diluted 1:3000 in TBS^+++/BSA and 125 μL were added to each well. After 30 minutes, the plates were washed and incubated with OPD/H2O2 substrate in 100 mM/L Citrate buffer, pH 5.0. The plate was read with a microtiter plate reader at a wavelength of 450 nm and when the maximum-binding control wells reached an absorbance of about 1.0, the final A450 were recorded for analysis. The data were analyzed using a macro written for use with the EXCEL™ spreadsheet program. The mean, standard deviation, and %CV were determined for duplicate concentrations. The mean A450 values were normalized to the mean of four maximum-binding controls (no competitor added) (B-MAX). The normalized values were subjected to a four parameter curve fit algorithm [Rodbard et al., Int.

Test [2] has as its target T2, Human fibrinogen receptor (αIIbβ3) (Homo sapiens, UniProt P05106+P08514).
T2 construct: Human fibrinogen receptor (αIIbβ3) was purified from outdated platelets; from tissue; host or cells: outdated (human) platelets
The test can be described thus: Purified IIb/IIIa receptor assay (solid phase receptor assay, competition with biotinylated vitronectin). The test is classed as binding. As to conditions: purified human αIIbβ3 from platelets; 1 nM biotinylated vitronectin; highest concentration 1.0×10^−4 M.
Text: Purified IIb/IIIa Receptor Assay
Human fibrinogen receptor (αIIbβ3) was purified from outdated platelets. (Pytela, R., Pierschbacher, M. D., Argraves, S., Suzuki, S., and Rouslahti, E. “Arginine-Glycine-Aspartic acid adhesion receptors”, Methods in Enzymology 144(1987):475-489.) Human vitronectin was purified from fresh frozen plasma as described in Yatohgo, T., Izumi, M., Kashiwagi, H., and Hayashi, M., “Novel purification of vitronectin from human plasma by heparin affinity chromatography,” Cell Structure and Function 13(1988):281-292. Biotinylated human vitronectin was prepared by coupling NHS-biotin from Pierce Chemical Company (Rockford, Ill.) to purified vitronectin as previously described. (Charo, I. F., Nannizzi, L., Phillips, D. R., Hsu, M. A., Scarborough, R. M., “Inhibition of fibrinogen binding to GP IIb/IIIa by a GP IIIa peptide”, J. Biol. Chem. 266(3)(1991): 1415-1421.) Assay buffer, OPD substrate tablets, and RIA grade BSA were obtained from Sigma (St. Louis, Mo.). Anti-biotin antibody was obtained from Calbiochem (La Jolla, Calif.). Linbro microtiter plates were obtained from Flow Labs (McLean, Va.). ADP reagent was obtained from Sigma (St. Louis, Mo.).
as §1
This assay is essentially the same reported in Niiya, K., Hodson, E., Bader, R., Byers-Ward, V. Koziol, J. A., Plow, E. F. and Ruggeri, Z. M., “Increased surface expression of the membrane glycoprotein IIb/IIIa complex induced by platelet activation: Relationships to the binding of fibrinogen and platelet aggregation”, Blood 70(1987):475-483. The purified human fibrinogen receptor (αIIbβ3) was diluted from stock solutions to 1.0 μg/mL in Tris-buffered saline containing 1.0 mM Ca^++, Mg^++, and Mn^++, pH 7.4 (TBS^+++). The diluted receptor was immediately transferred to Linbro microtiter plates at 100 μL/well (100 ng receptor/well). The plates were sealed and incubated overnight at 4° C. to allow the receptor to bind to the wells. All remaining steps were at room temperature. The assay plates were emptied and 200 μL of 1% RIA grade BSA in TBS^+++ (TBS^+++/BSA) were added to block exposed plastic surfaces. Following a 2 hour incubation, the assay plates were washed with TBS^+++ using a 96 well plate washer. Logarithmic serial dilution of the test compound and controls were made starting at a stock concentration of 2 mM and using 2 nM biotinylated vitronectin in TBS^+++/BSA as the diluent. This premixing of labeled ligand with test (or control) ligand, and subsequent transfer of 50 μL aliquots to the assay plate was carried out with a CETUS Propette robot; the final concentration of the labeled ligand was 1 nM and the highest concentration of test compound was 1.0×10^−4 M. The competition occurred for two hours after which all wells were washed with a plate washer as before. Affinity purified horseradish peroxidase labeled goat anti-biotin antibody was diluted 1:3000 in TBS^+++/BSA and 125 μL were added to each well. After 30 minutes, the plates were washed and incubated with […] substrate in 100 mM/L citrate buffer, pH 5.0. The plate was read with a microtiter plate reader at a wavelength of 450 nm and when the maximum-binding control wells reached an absorbance of about 1.0, the final A450 were recorded for analysis. The data were analyzed using a macro written for use with the EXCEL™ spreadsheet program. The mean, standard deviation, and %CV were determined for duplicate concentrations. The mean A450 values were normalized to the mean of four maximum-binding controls (no competitor added) (B-MAX). The normalized values were subjected to a four parameter curve fit algorithm, [Robard et al., Int.

In test [3] the test system is Human platelet rich plasma. The test can be described thus: Human platelet rich plasma assay (ADP induced platelet aggregation). The test is classed as cell-based. As to conditions: concentration of half-maximal inhibition, read-out: Human PRP. As for the experimental part:
Human Platelet Rich Plasma Assays
Healthy aspirin free donors were selected from a pool of volunteers. The harvesting of platelet rich plasma and subsequent ADP induced platelet aggregation assays were performed as described in Zucker, M. B., “Platelet Aggregation Measured by the Photometric Method”, Methods in Enzymology 169(1989):117-133. Standard venipuncture techniques using a butterfly allowed the withdrawal of 45 mL of whole blood into a 60 mL syringe containing 5 mL of 3.8% trisodium citrate. Following thorough mixing in the syringe, the anti-coagulated whole blood was transferred to a 50 mL conical polyethylene tube. The blood was centrifuged at room temperature for 12 minutes at 200×g to sediment non-platelet cells. Platelet rich plasma was removed to a polyethylene tube and stored at room temperature until used. Platelet poor plasma was obtained from a second centrifugation of the remaining blood at 2000×g for 15 minutes. Platelet counts are typically 300,000 to 500,000 per microliter. Platelet rich plasma (0.45 mL) was aliquoted into siliconized cuvettes and stirred (1100 rpm) at 37° C. for 1 minute prior to adding 50 uL of pre-diluted test compound. After 1 minute of mixing, aggregation was initiated by the addition of 50 uL of 200 uM ADP. Aggregation was recorded for 3 minutes in a Payton dual channel aggregometer (Payton Scientific, Buffalo, N.Y.). […]

The mark [4] stands for this setting: purified human αvβ3 from placenta, 1 nM biotinylated vitronectin, highest concentration 1.0×10^−4 M, read-out: AvB3 IC50.

Where a name gives a salt, the structure may show the parent alone. Read-outs that look alike come from different tables or passages of the source.

Consider `N=C(N)Nc1cccc(S(=O)(=O)Nc2cccc(S(=O)(=O)NC(CC(=O)O)c3ccccc3)c2)c1` (stereo not drawn) [Example 9, β-[[[3-[[[3-[(Aminoiminomethyl)amino]phenyl]-sulfonyl]amino]phenyl]sulfonyl]amino]phenyl-propanoic Acid, Trifluoroacetate Salt], for which the values for the IC50 in test [1] (setting [4]) and in test [2] were 29.3 nM and 93.6 nM, respectively.
Turning to `C=CC(CC(=O)O)NS(=O)(=O)c1cccc(NC(=O)c2cccc(NC(=N)N)c2)c1` (racemic) [Example 3, (±) 3-[[[3-[[[3-[(Aminoiminomethyl)amino]phenyl]-carbonyl]amino]phenyl]sulfonyl]amino]-4-pentenoic Acid, Trifluoroacetate Salt], the IC50 turned out to be 5.34 nM in test [1] (setting [4]) and 11.6 nM in test [2].
On the same counts, the results for `C#C[C@H](CC(=O)O)NS(=O)(=O)c1cccc(NC(=O)c2cccc(NC3=NCCN3)c2)c1` [Example 7, 3S-[[[3-[[[3-[(4,5-Dihydro-1H-imidazol-2-yl)amino]-phenyl]carbonyl]amino]phenyl]sulfonyl]amino]-4-pentynoic Acid, Trifluoroacetate Salt] are 15 nM and 418 nM.
For `N=C(N)Nc1cccc(C(=O)Nc2cccc(S(=O)(=O)NC(CC(=O)O)c3cc(Cl)cc(Cl)c3)c2)c1` (racemic) [Example 4, (±) β-[[[3-[[[3-[(Aminoiminomethyl)amino]phenyl]-carbonyl]amino]phenyl]sulfonyl]amino]-3,5-dichlorobenzene Propanoic Acid, Trifluoroacetate Salt], in that order: 659 nM and 987 nM.
Turning to `N=C(N)Nc1cccc(C(=O)Nc2cccc(S(=O)(=O)N3CCCCC3CC(=O)O)c2)c1` (stereo not drawn) [Example 6, 1-[[3-[[[3-[(Aminoiminomethyl)amino]phenyl]carbonyl]-amino]phenyl]sulfonyl]piperidine-2-acetic Acid, Trifluoroacetate Salt], the IC50 is 183 nM in test [1] (setting [4]) and 3920 nM in test [2].
On the same counts, the results for `N=C(N)Nc1cccc(C(=O)Nc2cccc(S(=O)(=O)NC(CC(=O)O)c3cccnc3)c2)c1` (stereo not drawn) [Example 5, β-[[[3-[[[3-[(Aminoiminomethyl)amino]phenyl]-carbonyl]amino]phenyl]sulfonyl]amino]pyridine-3-propanoic Acid, tris(Trifluoroacetate) Salt] are 4.66 nM and 24.7 nM.
Regarding “β-[[2-[[5-[(aminoiminomethyl)amino]-1-oxopentyl]amino]-1-oxoethyl]amino]-3-pyridinepropanoic acid [reference compound]”, in test [1] (positive control included on each plate, read-out: IC50 (αvβ3 antagonist, positive control)), the IC50 is 3 to 10 nM.
On to `C#CC(CC(=O)O)NS(=O)(=O)c1cccc(NC(=O)c2cccc(NC(=N)N)c2)c1` (stereo not drawn) [Example 8, 3-[[[3-[[[3-[(Aminoiminomethyl)amino]phenyl]-carbonyl]amino]phenyl]sulfonyl]amino]-4-pentynoic Acid, Trifluoroacetate Salt], for which the IC50 in test [1] (setting [4]) is 11.3 nM; in test [2], 38.2 nM.
As to `N=C(N)Nc1cccc(C(=O)Nc2cccc(S(=O)(=O)NC(CC(=O)O)c3ccccc3)c2)c1` (stereo not drawn) [Example 1, β-[[[3-[[[3-[(Aminoiminomethyl)amino]phenyl]carbonyl]amino]phenyl]sulfonyl]amino]-benzenepropanoic Acid, Trifluoroacetate Salt], the IC50 was 1.66 nM in test [1] (setting [4]), 11.3 nM in test [2] and above 200000 nM in test [3].
